Data as given in ChEMBL document CHEMBL1141832, “A new discorhabdin from two sponge genera” (1999).
Converted amounts (≈) assume the structure as drawn.

Assay: Antitumor activity against human NCI60 cells
Type: functional

In the case of `O=C1C=C2S[C@H]3C[C@]2(C=C1Br)C1=C(N3)C(=O)c2[nH]cc3ccnc1c23` [DISCORHABDIN Q], the GI50 is reported as 0.5 µg/mL (≈ 1.21 µM).
